Test system: IL-1 gene expression in LPS induced synovial fibroblast (SF) cells
Assay: IL-1 gene expression relative to GAPDH in LPS induced synovial fibroblast cells (RT-PCR)
Format: cell-based
Details: 24 hours
Experimental: Experiments were conducted to evaluate the effect of particular phytochemical compositions provided by the present disclosure on IL-1 gene expression in specified cells found within a body of a living organism. The cells used for the experiments described in example one are lipopolysaccharide (LPS) induced synovial fibroblast (SF) cells. The SF cells were isolated from synovium tissue (also referred to as synovial tissue) using standard cell isolation techniques or methods known to a person of ordinary skill in the art. In addition, LPS is obtained from a commercial source, for example Sigma-Aldrich Co. It is understood by a person having ordinary skill in the art that the SF cells may be substituted with other immune cells found within the body, for example peripheral blood mononuclear cells, lymphocytes, monocytes, and macrophages, which can be isolated using techniques or methods known to a person of ordinary skill in the art. […]
The amount or level of IL-1 gene expression in the SF cells was measured or determined using methods or techniques known to a person having ordinary skill in the relevant art. In example 1, Real-Time PCR (RT-PCR) was used for quantifying the amount of IL-1 gene expression in the SF cells. IL-1beta or IL-1β specific primers were used during RT-PCR, thereby facilitating the quantification of IL-1β gene expression in the SF cells. […]

c1cc2c(cc1[C@H]1OC[C@H]3[C@@H]1CO[C@@H]3c1ccc3c(c1)OCO3)OCO2 [sesamin]
decrease in IL-1 gene expression relative to GAPDH (0.025 mM sesamin (culture 4), compared to control culture 3 (LPS 0.2 μg/ml + DMSO)): approximately 20% | decrease in IL-1 gene expression relative to GAPDH (1.0 mM sesamin (culture 9), compared to control culture 2 (LPS 0.2 μg/ml)): approximately 65%
